Data from PMC6214108, “Synthesis and In Vitro Antitumor Activity of Novel Bivalent β-Carboline-3-carboxylic Acid Derivatives with DNA as a Potential Target” (International Journal of Molecular Sciences, 2018).

Key:
Format in all cases: cell-based
[1] = test system: cytochrome C (Cyt C) in mitochondria; experiment: Western blot of cytochrome C in mitochondria; conditions: A549, 2, 4, and 8 μM, 48 h
Experimental: The level of cytochrome C (Cyt C) in mitochondria, and the expression of bcl-2 protein, were evaluated by western blot. A549 cells (1 × 10^6 cells per well) seeded into 6-well plates (JET, Guangzhou, China) were incubated with DMEM containing various concentrations (2, 4, and 8 μM) of β-carbolines (6i and 6u) for 48 h at 37 °C and 5% CO2. Then, the cells were lysed with RIPA lysis buffer for 30 min on ice (containing 1% PMSF), centrifuged at 12,000× g for 5 min at 4 °C, and then the supernatants were transferred to 1.5 mL EP tubes. Proteins were separated by sodium dodecyl sulfate-polyacrylamide gel electrophoresis (SDS-PAGE) and blotted on polyvinylidene difluoride (PVDF) membranes (Millipore, Burlington, MA, USA), as previously described. The membranes were blocked for 2 h at r.t. with 5% non-fat milk in TBST buffer (20 mM Tris-HCl,150 mM NaCl and 0.05% Tween-20, pH7.4), and then incubated with the mouse anti-bcl-2 monoclonal antibody (Sigma, Saint Louis, MO, USA), anti-cytochrome C monoclonal antibody (Beyotime, Haimen, China), and anti-β-actin antibody (1:4000 dilution; Abcam, Cambridge, MA, USA) overnight at 4 °C, and finally incubated with the peroxidase conjugated goat anti-mouse IgG (Jackson ImmunoResearch Laboratories, West Grove, PA, USA) at 37 °C for 1 h. […]

[2] = test system: A549 (lung carcinoma) cell line; experiment: MTT cytotoxicity assay, A549; conditions: Homo sapiens, 48 h, mean of three independent experiments, read-out: IC50 (μM) Mean ± SD, A549
Experimental: All cell lines (A549, SGC-7901, Hela, SMMC-7721, and MCF-7) were purchased from the American Type Culture Collection (Manassas, VA, USA), and were cultured in Dulbecco’s modified Eagle’s medium (DMEM, HycloneLaboratories Inc., Logan, Utah, USA) supplemented with 10% fetal bovine serum (FBS, Gibco&Invitrogen, Carlsbad, CA, USA) at 37 °C and 5% CO2.
The cytotoxic activities of β-carboline-3-carboxylic acid derivatives were investigated by the MTT method, as previously described. Cells (1 × 10^4 cells per well) seeded into 96-well plates (JET, Guangzhou, China) were incubated with DMEM containing various concentrations (2.5, 5, 10, 20, 40, and 80 μM) of β-carbolines (4A, 4B, 4C, 4D, 6a-6f, 6g-6l, 6m-6r, and 6s-6x) for 48 h at 37 °C and 5% CO2. Then, 10 µL of 5 mg/mL MTT reagent dissolved in PBS (Phosphate buffered saline) was added per well, and plates were incubated at 37 °C for 4 h. The medium was carefully removed and 100 µL dimethyl sulfoxide (DMSO) was added to dissolve the formazan crystals. The absorbance was measured at 490 nm with a microplate reader (ThermoFisher Scientific Inc., Waltham, MA, USA). The β-carbolines were dissolved in DMSO as stock solutions (10 mM) at −20 °C, and diluted in the final experimental solution using DMEM before use. A549 (lung carcinoma), SGC-7901 (gastric carcinoma), Hela (cervical carcinoma), SMMC-7721 (liver carcinoma), and MCF-7 (breast carcinoma) cell lines were used for the antitumor activity screening. The IC50 values were the mean values of three independent experiments.

A549 cells = experiment: Cell apoptosis assay, Annexin V-FITC/PI dual staining, flow cytometry; conditions: 48 h; for Percentage of Cell Apoptosis (%) Normal Living Cell: lower left quadrant in Figure 3; for Percentage of Cell Apoptosis (%) Early Apoptosis: lower right quadrant in Figure 3
Experimental: The cell apoptosis was evaluated using Annexin V-FITC/PI dual staining (Beyotime, China). A549 cells (1 × 10^6 cells per well) seeded into 6-well plates (JET, Guangzhou, China) were incubated with DMEM containing various concentrations (2, 4, and 8 μM) of β-carbolines (4B, 6i, 4D, and 6u) for 48 h at 37 °C and 5% CO2. The cells in the supernatant and adherent were collected and washed with PBS, and then the cells were stained with Annexin V-FITC and PI for 20 min at r.t. The samples were analyzed using flow cytometry (Becton Dickinson, San Jose, CA, USA).
Figure 3 The cell apoptosis was detected by flow cytometry using Annexin V-FITC/PI dual staining. A549 cells were treated with 4B, 6i, 4D, and 6u at 2, 4, and 8 μM for 48 h, and then stained with Annexin V-FITC and PI for 15 min at 37 °C. The proportions of the living cells, the early apoptosis cells, and the late apoptotic cells were analyzed by FCS Express 5.0. TEXT PRINTED IN THE PICTURE: 4B: 9.00% (2 μM); 11.89% (2 μM); 75.93% (2 μM); 3.18% (2 μM); 8.92% (4 μM); 27.14% (4 μM); 48.59% (4 μM); 15.35% (4 μM); 3.89% (8 μM); 65.76% (8 μM); 21.95% (8 μM); 8.40% (8 μM) | 6i: 0.77% (2 μM); 20.26% (2 μM); 72.12% (2 μM); 6.85% (2 μM); 9.33% (4 μM); 33.08% (4 μM); 44.94% (4 μM); 12.65% (4 μM); 23.51% (8 μM); 59.73% (8 μM); 12.52% (8 μM); 4.24% (8 μM) | Control: 0.36%; 7.08%; 88.34%; 4.22% | 4D: 2.62% (2 μM); 16.16% (2 μM); 73.94% (2 μM); 7.27% (2 μM); 10.30% (4 μM); 34.96% (4 μM); 47.93% (4 μM); 6.80% (4 μM); 22.79% (8 μM); 54.30% (8 μM); 17.63% (8 μM); 5.28% (8 μM) | 6u: 0.17% (2 μM); 21.64% (2 μM); 66.05% (2 μM); 12.14% (2 μM); 6.92% (4 μM); 54.01% (4 μM); 32.53% (4 μM); 6.54% (4 μM); 2.79% (8 μM); 80.73% (8 μM); 8.83% (8 μM); 7.65% (8 μM) DOUBTS OF THE COPYIST ABOUT THIS PICTURE: The quadrant percentages carry no printed measure. For each plot they are listed in the order upper left, upper right, lower left, lower right. / All quadrant percentages are printed very small and blurred, so 3, 5, 6, 8 and 9 cannot be told apart with certainty in any of them.

| SMILES | Level of Cyt C (in mitochondria), western blot [1] | IC50 [2] | Percentage of Cell Apoptosis (%) Late Apoptosis and Necrosis (A549 cells; A549, 2 μM) | Percentage of Cell Apoptosis (%) Normal Living Cell (A549 cells; A549, 2 μM) | Percentage of Cell Apoptosis (%) Early Apoptosis (A549 cells; A549, 2 μM) | Percentage of Cell Apoptosis (%) Late Apoptosis and Necrosis (A549 cells; A549, 4 μM) | Percentage of Cell Apoptosis (%) Normal Living Cell (A549 cells; A549, 4 μM) | Percentage of Cell Apoptosis (%) Early Apoptosis (A549 cells; A549, 4 μM) | Percentage of Cell Apoptosis (%) Late Apoptosis and Necrosis (A549 cells; A549, 8 μM) | Percentage of Cell Apoptosis (%) Normal Living Cell (A549 cells; A549, 8 μM) | Percentage of Cell Apoptosis (%) Early Apoptosis (A549 cells; A549, 8 μM) |
| --- | --- | --- | --- | --- | --- | --- | --- | --- | --- | --- | --- |
| O=C(OCCCCCOC(=O)c1cc2c3ccccc3n(Cc3ccccc3F)c2cn1)c1cc2c3ccccc3n(Cc3ccccc3F)c2cn1 [Compound 6u] | decreased in a dose-dependent manner | 5.61 ± 0.04 µM | 21.81% | 66.05% | 12.14% | 60.93% | 32.53% | 6.54% | 83.52% | 8.83% | 7.65% |
| Cc1ccccc1Cn1c2ccccc2c2cc(C(=O)OCCCCCOC(=O)c3cc4c5ccccc5n(Cc5ccccc5C)c4cn3)ncc21 [Compound 6i] | decreased in a dose-dependent manner | 6.93 ± 0.33 µM | 21.03% | 72.12% | 6.85% | 42.41% | 44.94% | 12.65% | 83.24% | 12.52% | 4.24% |
| COC(=O)c1cc2c3ccccc3n(Cc3ccccc3F)c2cn1 [Compound 4D] |  | 13.94 ± 0.07 µM | 18.78% | 73.94% | 7.27% | 45.26% | 47.93% | 6.80% | 77.09% | 17.63% | 5.28% |
| COC(=O)c1cc2c3ccccc3n(Cc3ccccc3C)c2cn1 [Compound 4B] |  | 39.2 ± 1.18 µM | 20.89% | 75.93% | 3.18% | 36.06% | 48.59% | 15.35% | 69.65% | 21.95% | 8.40% |
